Assay results reported in patent US9486506B2 (Novo Nordisk A/S, priority 2011, dated 2016).
Numbered stars: 1 amine (or outer) side, 2 acyl side, 3 side chain; on linkers, the order of the positions; unused ones are H or OH. Side chains are listed from the residue outwards. Peptide text beside a SMILES is read from it. * marks the point of attachment. C18 diacid = O=C(O)CCCCCCCCCCCCCCCCC(=O)*; γGlu = O=C(O)[C@H](CCC(=O)[*:2])N[*:1]; AEEA = NCCOCCOCC(=O)O

Legend:
glucagon receptor = target: T1, glucagon receptor (Homo sapiens, UniProt P47871); assay: Assay (I) Glucagon activity (cAMP biosensor, FLIPR); type: cell-based
T1 construct: expressed in transfected cells
T1 sequence (P47871 26-477): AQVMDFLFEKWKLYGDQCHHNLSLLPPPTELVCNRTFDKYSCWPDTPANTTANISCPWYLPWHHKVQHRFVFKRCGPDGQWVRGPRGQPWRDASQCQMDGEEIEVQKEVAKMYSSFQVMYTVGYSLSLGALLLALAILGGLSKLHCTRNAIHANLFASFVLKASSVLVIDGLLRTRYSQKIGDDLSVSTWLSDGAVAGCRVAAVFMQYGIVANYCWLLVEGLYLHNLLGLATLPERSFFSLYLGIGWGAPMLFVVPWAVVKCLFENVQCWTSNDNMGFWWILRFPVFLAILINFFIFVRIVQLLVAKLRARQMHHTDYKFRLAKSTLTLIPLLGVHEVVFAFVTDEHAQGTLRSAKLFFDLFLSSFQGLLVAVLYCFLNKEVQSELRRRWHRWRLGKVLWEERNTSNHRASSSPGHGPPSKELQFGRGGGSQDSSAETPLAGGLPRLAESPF

[1] = Assay (X) Chemical stability assessment by RP-UPLC; type: physicochemical; details: pH 8.15, 14 days at 37° C. vs 5° C., 333 μM

SMILES | EC50 (glucagon receptor) | Chemical stability [Purity loss/14 days 37 C.] [1]
CC(C)C[C@H](NC(=O)[C@H](Cc1c[nH]c2ccccc12)NC(=O)[C@H](CCCCNC(=O)CC[C@H](NC(=O)CC[C@H](NC(=O)COCCOCCNC(=O)COCCOCCNC(=O)CC[C@H](NC(=O)CCCCCCCCCCCCCCCCC(=O)O)C(=O)O)C(=O)O)C(=O)O)NC(=O)[C@@H](NC(=O)[C@H](Cc1ccccc1)NC(=O)[C@H](CC(=O)O)NC(=O)[C@H](CCC(N)=O)NC(=O)[C@H](C)NC(=O)[C@H](CCCNC(=N)N)NC(=O)[C@H](CCCNC(=N)N)NC(=O)[C@@H](NC(=O)[C@H](CC(=O)O)NC(=O)[C@H](CC(C)C)NC(=O)[C@H](Cc1ccc(O)cc1)NC(=O)[C@H](CCCNC(=N)N)NC(=O)[C@H](CO)NC(=O)[C@H](Cc1ccc(O)cc1)NC(=O)[C@H](CC(=O)O)NC(=O)[C@H](CO)NC(=O)[C@@H](NC(=O)[C@H](Cc1ccccc1)NC(=O)[C@@H](NC(=O)CNC(=O)[C@H](CCC(N)=O)NC(=O)[C@H](CO)NC(=O)[C@@H](N)Cc1c[nH]cn1)[C@@H](C)O)[C@@H](C)O)C(C)C)C(C)C)C(=O)N[C@@H](CC(C)C)C(=O)N[C@@H](CO)C(=O)N[C@H](C(=O)O)[C@@H](C)O [Example 21, N^ε24-[(4S)-4-carboxy-4-[[(4S)-4-carboxy-4-[[2-[2-[2-[[2-[2-[2-[[(4S)-4-carboxy-4-(17-carboxyheptadecanoylamino)butanoyl]amino]ethoxy]ethoxy]acetyl]amino]ethoxy]ethoxy]acetyl]amino]butanoyl]amino]butanoyl]-[Arg^12,Val^16,Lys^24,Leu^27,Ser^28]-Glucagon] (H-HSQGTFTSDYSRYLDVRRAQDFVK([γGlu-γGlu-AEEA-AEEA-γGlu-C18 diacid])WLLST-OH) | 1.32 nM | 2.9%
CC[C@H](C)[C@H](NC(=O)[C@H](CC(=O)O)NC(=O)[C@H](CC(C)C)NC(=O)[C@H](Cc1ccc(O)cc1)NC(=O)[C@H](CCCCN)NC(=O)[C@H](CO)NC(=O)[C@H](Cc1ccc(O)cc1)NC(=O)[C@H](CC(=O)O)NC(=O)[C@H](CO)NC(=O)[C@@H](NC(=O)[C@H](Cc1ccccc1)NC(=O)[C@@H](NC(=O)CNC(=O)[C@H](CCC(N)=O)NC(=O)[C@H](CO)NC(=O)[C@@H](N)Cc1c[nH]cn1)[C@@H](C)O)[C@@H](C)O)C(=O)N[C@@H](CCCNC(=N)N)C(=O)N[C@@H](CCCNC(=N)N)C(=O)N[C@@H](C)C(=O)N[C@@H](CCC(N)=O)C(=O)N[C@@H](CC(=O)O)C(=O)N[C@@H](Cc1ccccc1)C(=O)N[C@H](C(=O)N[C@@H](CCCCNC(=O)CC[C@H](NC(=O)CC[C@H](NC(=O)CC[C@H](NC(=O)CC[C@H](NC(=O)CCCCCCCCCCCCCCCCC(=O)O)C(=O)O)C(=O)O)C(=O)O)C(=O)O)C(=O)N[C@@H](Cc1c[nH]c2ccccc12)C(=O)N[C@@H](CC(C)C)C(=O)N[C@@H](CC(C)C)C(=O)N[C@@H](CO)C(=O)N[C@H](C(N)=O)[C@@H](C)O)C(C)C [Example 75, N^ε24-[(4S)-4-carboxy-4-[[(4S)-4-carboxy-4-[[(4S)-4-carboxy-4-[[(4S)-4-carboxy-4-(17-carboxyheptadecanoylamino)butanoyl]amino]butanoyl]amino]butanoyl]amino]butanoyl]-[Ile16,Lys24,Leu27,Ser28]-Glucagon amide] | 0.402 nM | 3.6%
CC[C@H](C)[C@H](NC(=O)[C@H](CC(=O)O)NC(=O)[C@H](CC(C)C)NC(=O)[C@H](Cc1ccc(O)cc1)NC(=O)[C@H](CCCNC(=N)N)NC(=O)[C@H](CO)NC(=O)[C@H](Cc1ccc(O)cc1)NC(=O)[C@H](CC(=O)O)NC(=O)[C@H](CO)NC(=O)[C@@H](NC(=O)[C@H](Cc1ccccc1)NC(=O)[C@@H](NC(=O)CNC(=O)[C@H](CCC(N)=O)NC(=O)[C@H](CO)NC(=O)[C@@H](N)Cc1c[nH]cn1)[C@@H](C)O)[C@@H](C)O)C(=O)N[C@@H](CCCNC(=N)N)C(=O)N[C@@H](CCCNC(=N)N)C(=O)N[C@@H](C)C(=O)N[C@@H](CCC(N)=O)C(=O)N[C@@H](CC(=O)O)C(=O)N[C@@H](Cc1ccccc1)C(=O)N[C@H](C(=O)N[C@@H](CCCCNC(=O)CC[C@H](NC(=O)CC[C@H](NC(=O)COCCOCCNC(=O)COCCOCCNC(=O)CC[C@H](NC(=O)CCCCCCCCCCCCCCCCC(=O)O)C(=O)O)C(=O)O)C(=O)O)C(=O)N[C@@H](Cc1c[nH]c2ccccc12)C(=O)N[C@@H](CC(C)C)C(=O)N[C@@H](CC(C)C)C(=O)N[C@@H](CO)C(=O)N[C@H](C(=O)O)[C@@H](C)O)C(C)C [Example 23, N^ε24-[(4S)-4-carboxy-4-[[(4S)-4-carboxy-4-[[2-[2-[2-[[2-[2-[2-[[(4S)-4-carboxy-4-(17-carboxyheptadecanoylamino)butanoyl]amino]ethoxy]ethoxy]acetyl]amino]ethoxy]ethoxy]acetyl]amino]butanoyl]amino]butanoyl]-[Arg^12,Ile^16,Lys^24,Leu^27,Ser^28]-Glucagon] (H-HSQGTFTSDYSRYLDIRRAQDFVK([γGlu-γGlu-AEEA-AEEA-γGlu-C18 diacid])WLLST-OH) | 1.04 nM | 3.1%
CC(C)C[C@H](NC(=O)[C@H](CC(=O)O)NC(=O)[C@H](CC(C)C)NC(=O)[C@H](Cc1ccc(O)cc1)NC(=O)[C@H](CCCCN)NC(=O)[C@H](CO)NC(=O)[C@H](Cc1ccc(O)cc1)NC(=O)[C@H](CC(=O)O)NC(=O)[C@H](CO)NC(=O)[C@@H](NC(=O)[C@H](Cc1ccccc1)NC(=O)[C@@H](NC(=O)CNC(=O)[C@H](CCC(N)=O)NC(=O)[C@H](CO)NC(=O)[C@@H](N)Cc1c[nH]cn1)[C@@H](C)O)[C@@H](C)O)C(=O)N[C@@H](CCCNC(=N)N)C(=O)N[C@@H](CCCNC(=N)N)C(=O)N[C@@H](C)C(=O)N[C@@H](CCC(N)=O)C(=O)N[C@@H](CC(=O)O)C(=O)N[C@@H](Cc1ccccc1)C(=O)N[C@H](C(=O)N[C@@H](CCCCNC(=O)CC[C@H](NC(=O)CC[C@H](NC(=O)CC[C@H](NC(=O)CC[C@H](NC(=O)CCCCCCCCCCCCCCCCC(=O)O)C(=O)O)C(=O)O)C(=O)O)C(=O)O)C(=O)N[C@@H](Cc1c[nH]c2ccccc12)C(=O)N[C@@H](CC(C)C)C(=O)N[C@@H](CC(C)C)C(=O)N[C@@H](CO)C(=O)N[C@H](C(N)=O)[C@@H](C)O)C(C)C [Example 77, N^ε24-[(4S)-4-carboxy-4-[[(4S)-4-carboxy-4-[[(4S)-4-carboxy-4-[[(4S)-4-carboxy-4-(17-carboxyheptadecanoylamino)butanoyl]amino]butanoyl]amino]butanoyl]amino]butanoyl]-[Leu16,Lys24,Leu27,Ser28]-Glucagon amide] | 0.812 nM | 4.1%
